Measured values reported in patent publication US20010049373A1, “Materials and methods for killing nematodes and nematode eggs” (priority 2000, published 2001).
Several values for one entry are separate records, joined by “and”; a condition that tells them apart may be missing. Equal entries are not always repeated.

Assays:
Type in all cases: in vivo
[1] = system: gastrointestinal nematodes (trichostrongyle, Strongyloides, Trichuris, Nematodirus eggs); test: Sheep Test I: fecal egg per gram (EPG) counts; settings: for % Change, Strongyles EPG-5 day vs EPG-pre, Total/Mean / Strongyles EPG-5 day (22-Jan), Total/Mean / % Change, Strongyles EPG-7 day vs EPG-pre, Total/Mean / Strongyles EPG-7 day (24-Jan), Total/Mean: group mean; for % Change, Strongyles EPG-5 day vs EPG-pre, Total/Mean / Strongyles EPG-5 day (22-Jan), Total/Mean / Strongyles EPG-5 day (22-Jan): 5 days after treatment; for % Change, Strongyles EPG-7 day vs EPG-pre, Total/Mean / Strongyles EPG-7 day (24-Jan), Total/Mean / % Change, Strongyles EPG-7 day vs EPG-pre / Strongyles EPG-7 day (24-Jan): 7 days after treatment; for Strongyles EPG-5 day (22-Jan) / % Change, Strongyles EPG-7 day vs EPG-pre / Strongyles EPG-7 day (24-Jan): individual sheep
Description: Sheep naturally infected with a variety of gastrointestinal nematodes are purchased from local sources and are transported to the test site. The animals are housed in a manner to preclude further infection by nematode larvae. The animals are evaluated for the presence of adequate nematode burdens by performing a standard fecal egg per gram (EPG) count. Eggs are differentiated into the following groups: trichostrongyle (strongyle), Strongyloides, Trichuris, or Nematodinis. Only sheep judged by the study parasitologist to have adequate nematode infections are retained as test subjects.
The sheep are fed good quality hay (no concentrated rations) and water ad libitum. Following a five-day acclimation period, the sheep are randomly assigned by EPG count into treatment groups which include non-treated Negative control (placebo); Positive Control (commercially available ivermectin for sheep): and various anthelmintic compounds of the present invention (test compound) dissolved in DMSO. The first replicate of 10 animals is randomly assigned to groups 1-10; the second replicate of 10 animals is randomly assigned to groups 1-10; and the third replicate of 10 animals is randomly assigned to groups 1-10. Thus 10 groups of 3 animals each is created.
The randomization is performed on fecal samples collected 24-48 hours prior to scheduled treatment. The EPG counts are performed according to Zimmerman Research SOP # NMEPG.99.01
On treatment day, the animals are weighed and divided into groups with three animals per group as follows:
The placebo (DMSO), the commercially available drug, and the test anthelmintic compounds are administered in a 3 ml volume by subcutaneous injection using a sterile syringe fitted with a proper needle. The animal is adequately immobilized for injection of the placebo, commercially available drug, or test anthelmintic compound.
Following treatment, the animals are observed at hourly intervals for the first 8 hours, then daily until necropsy. They will continue to be housed in a manner to prevent further nematode infections. Fecal samples are taken for EPG counts on the 5th day and 7th day after treatment.
Seven days following treatment the sheep are humanely slaughtered in accordance with the Guide for the Care and Use of Laboratory Animals (DHEW Publication No. 86-23). Necropsy procedures are according to Zimmerman Research SOP # NCRGIH.99.01, Necropsy for Helminth Recovery, specifically for gastrointestinal nematodes. Fecal samples are taken for EPG counts during the sample collection process on this day. All animals are necropsied, but only the animals from the experimental treatment groups that have a significant egg count reduction on day 5 or day 7 will have intestinal material collected for nematode recovery and identification.

[2] = system: gastrointestinal nematodes; test: Sheep Test I: nematode recovery at necropsy, controlled anthelmintic test efficacy; settings: for Mean Ct, Abomasum Haemonchus / Mean Ct, Abomasum ostertagia / Mean Ct, Small Intest. Nematodirus / Mean Ct, Small Intestine Trichostrongylus: group mean; for Mean Ct, Abomasum Haemonchus / Mean Ct, Abomasum ostertagia / Mean Ct, Small Intest. Nematodirus / Mean Ct, Small Intestine Trichostrongylus / Worm Counts, Abomasum Haemonchus / Worm Counts, Abomasum ostertagia / Worm Counts, Small Intest. Nematodirus / Worm Counts, Small Intestine Trichostrongylus: necropsy seven days following treatment; for Worm Counts, Abomasum Haemonchus / Worm Counts, Abomasum ostertagia / Worm Counts, Small Intest. Nematodirus / Worm Counts, Small Intestine Trichostrongylus: individual sheep
Description: Sheep naturally infected with a variety of gastrointestinal nematodes are purchased from local sources and are transported to the test site. The animals are housed in a manner to preclude further infection by nematode larvae. The animals are evaluated for the presence of adequate nematode burdens by performing a standard fecal egg per gram (EPG) count. Eggs are differentiated into the following groups: trichostrongyle (strongyle), Strongyloides, Trichuris, or Nematodinis. Only sheep judged by the study parasitologist to have adequate nematode infections are retained as test subjects. The sheep are fed good quality hay (no concentrated rations) and water ad libitum. Following a five-day acclimation period, the sheep are randomly assigned by EPG count into treatment groups which include non-treated Negative control (placebo); […] The first replicate of 10 animals is randomly assigned to groups 1-10; the second replicate of 10 animals is randomly assigned to groups 1-10; and the third replicate of 10 animals is randomly assigned to groups 1-10. Thus 10 groups of 3 animals each is created. The placebo (DMSO), the commercially available drug, and the test anthelmintic compounds are administered in a 3 ml volume by subcutaneous injection using a sterile syringe fitted with a proper needle. The animal is adequately immobilized for injection of the placebo, commercially available drug, or test anthelmintic compound. Seven days following treatment the sheep are humanely slaughtered in accordance with the Guide for the Care and Use of Laboratory Animals (DHEW Publication No. 86-23). Necropsy procedures are according to Zimmerman Research SOP # […].99.01, Necropsy for Helminth Recovery, specifically for gastrointestinal nematodes. Fecal samples are taken for EPG counts during the sample collection process on this day. All animals are necropsied, but only the animals from the experimental treatment groups that have a significant egg count reduction on day 5 or day 7 will have intestinal material collected for nematode recovery and identification. Nematodes are recovered, identified, and enumerated according to Zimmerman Research SOP # […].99.01. All individuals performing nematode recoveries are blinded to treatment versus control animals. Preliminary estimates of total nematodes recovered from each gut sample are provided prior to identification and enumerations by the study parasitologist. At the discretion of the study parasitologist, seven days after the drug administration fecal egg counts are performed and all animals showing 90% or better trichostrongylid egg reduction will be slaughtered using humane methods recommended by the AVMA. The neck blood vessels are severed and after the animal is completely exsanguinated, the abdomen are opened. The abomasum, the small and large intestines are tied at the omasal and pyloric openings, the duodenum, the end of the small intestine and at the end of the large intestine. Each section is transferred in a separate bucket containing warm water and is slit open and thoroughly washed. The epithelium is inspected before it is removed. The thus prepared washings are saved in gallon jars. An appropriate preservative is added. If preservative is not available, all the intestinal washing should kept in a refrigerator. These washings are passed through a 100-mesh sieve (pore size […]), and the residue is examined for the presence of worms under a dissecting microscope, Lugol's solution may be used to stain the worms. All worms are picked up counted and identified as to the species. An effort should be made to recover any immature forms present.

Caenorhabditis elegans = test: HTS runs (initial and follow-up): mOD, % Run and visual score (Table 3)
Description: The nematicidal activity of anthelmintic Compositions 48-118 were determined in accordance with the procedure outlined in Example 2.

[3] = Ivermectin 200 mcg/kg, vs negative control mean count
[4] = AKC 109 1.4 mg/kg, vs negative control mean count

22,23-dihydroavermectin B1 [ivermectin]
% Change, Strongyles EPG-5 day vs EPG-pre, Total/Mean ([1]; Ivermectin .2 mg/kg): 99.62%
Strongyles EPG-5 day (22-Jan), Total/Mean ([1]; Ivermectin .2 mg/kg): 3.33 EPG
% Change, Strongyles EPG-7 day vs EPG-pre, Total/Mean ([1]; Ivermectin .2 mg/kg): 100.00%
Strongyles EPG-7 day (24-Jan), Total/Mean ([1]; Ivermectin .2 mg/kg): 0.00 EPG
Strongyles EPG-5 day (22-Jan) ([1]; Ivermectin .2 mg/kg): 10 EPG and 0 EPG (2×)
% Change, Strongyles EPG-7 day vs EPG-pre ([1]; Ivermectin .2 mg/kg): 100.00%
Strongyles EPG-7 day (24-Jan) ([1]; Ivermectin .2 mg/kg): 0 EPG
% Efficacy, Abomasum Haemonchus [2, 3]: 100%
% Efficacy, Abomasum ostertagia [2, 3]: 100%
% Efficacy, Small Intest. Nematodirus [2, 3]: 100%
% Efficacy, Small Intestine Trichostrongylus [2, 3]: 100%
Mean Ct, Abomasum Haemonchus ([2]; Ivermectin 200 mcg/kg): 0
Mean Ct, Abomasum ostertagia ([2]; Ivermectin 200 mcg/kg): 0
Mean Ct, Small Intest. Nematodirus ([2]; Ivermectin 200 mcg/kg): 0
Mean Ct, Small Intestine Trichostrongylus ([2]; Ivermectin 200 mcg/kg): 0
Worm Counts, Abomasum Haemonchus ([2]; Ivermectin 200 mcg/kg): 0
Worm Counts, Abomasum ostertagia ([2]; Ivermectin 200 mcg/kg): 0
Worm Counts, Small Intest. Nematodirus ([2]; Ivermectin 200 mcg/kg): 0
Worm Counts, Small Intestine Trichostrongylus ([2]; Ivermectin 200 mcg/kg): 0

CCC1CCCCN1c1cc(Oc2ccc3oc4ccccc4c3c2)ncn1 (stereo not drawn) [AKC 109]
% Change, Strongyles EPG-5 day vs EPG-pre, Total/Mean ([1]; AKC 109 1.4 mg/kg): 76.43%
Strongyles EPG-5 day (22-Jan), Total/Mean ([1]; AKC 109 1.4 mg/kg): 206.67 EPG
% Change, Strongyles EPG-7 day vs EPG-pre, Total/Mean ([1]; AKC 109 1.4 mg/kg): 85.55%
Strongyles EPG-7 day (24-Jan), Total/Mean ([1]; AKC 109 1.4 mg/kg): 126.67 EPG
Strongyles EPG-5 day (22-Jan) ([1]; AKC 109 1.4 mg/kg, 1.4 mg/kg): 30 EPG and 590 EPG and 0 EPG
% Change, Strongyles EPG-7 day vs EPG-pre ([1]; AKC 109 1.4 mg/kg, 1.4 mg/kg): 84.30% and −195.00% and 100.00%
Strongyles EPG-7 day (24-Jan) ([1]; AKC 109 1.4 mg/kg, 1.4 mg/kg): 380 EPG and 0 EPG
Follow-up HTS Run % Run (Caenorhabditis elegans; Follow-up HTS Run): 121%
Follow-up HTS Run Visual Score (Caenorhabditis elegans; Follow-up HTS Run): L4/AD/B!
Follow-up HTS Run mOD (Caenorhabditis elegans; Follow-up HTS Run): 163 mOD
Initial HTS Run % Run (Caenorhabditis elegans; Initial HTS Run): 132%
Initial HTS Run Visual Score (Caenorhabditis elegans; Initial HTS Run): 1AD/B!
Initial HTS Run mOD (Caenorhabditis elegans; Initial HTS Run): 258 mOD
% Efficacy, Abomasum ostertagia [2, 4]: 98%
% Efficacy, Small Intest. Nematodirus [2, 4]: 57%
Mean Ct, Abomasum Haemonchus ([2]; AKC 109 1.4 mg/kg): 507
Mean Ct, Abomasum ostertagia ([2]; AKC 109 1.4 mg/kg): 7
Mean Ct, Small Intest. Nematodirus ([2]; AKC 109 1.4 mg/kg): 353
Mean Ct, Small Intestine Trichostrongylus ([2]; AKC 109 1.4 mg/kg): 233
Worm Counts, Abomasum Haemonchus ([2]; AKC 109 1.4 mg/kg, 1.4 mg/kg): 20 and 1500 and 0
Worm Counts, Abomasum ostertagia ([2]; AKC 109 1.4 mg/kg, 1.4 mg/kg): 20 and 0 (2×)
Worm Counts, Small Intest. Nematodirus ([2]; AKC 109 1.4 mg/kg, 1.4 mg/kg): 100 and 500 and 460
Worm Counts, Small Intestine Trichostrongylus ([2]; AKC 109 1.4 mg/kg, 1.4 mg/kg): 540 and 160 and 0
